Assay results taken from patent publication US11980613B2, “Methods for reversing HIV latency using BAF complex modulating compounds” (priority 2018, dated 2024).

Columns and labels:
[1] = tested on: BAF target genes c-MYC and p21; assay: Biomarkers: mRNA of BAF target genes p21 and c-MYC in CD4+ T cells; assay type: cell-based, human
Procedure: [drawing 27] i. BRD-K25923209: To Macrocycle 2141-039b (0.804 g, 1.550 mmol) dissolved in MeOH (Volume: 15.50 ml) was added tin(II) chloride dihydrate (3.50 g, 15.50 mmol). The reaction mixture was stirred at 40° C. for 24 h until LC/MS indicated complete consumption of starting material (nitro) and presence of desired mass. Upon completion, the reaction mixture was concentrated and the resulting residue was dissolved in EtOAc and washed with 2 M aq. KOH (2×). The combined aqueous layers were washed with EtOAc (4×). The resulting organic layers were washed with brine, saturated aqueous NaHCO3, water, and brine, dried over MgSO4, filtered, and concentrated. The crude aniline was sufficiently pure to use in the capping step and therefore was used without purification. Note: The workup as described above produces a lot of precipitate/emulsion. This can be overcome by extensive washing or alternately, the reaction can be quenched with 1 volume of 1 M NaOH, stirred with celite for 10 minutes, and filtered prior to workup to yield 33.8% (17.2 mg) over 3 steps. (M+H)^+ calculated=489.286 (M+H)^+ average (3 ESI replicates)=489.2866±0.92. j. BRD-K80443127: A screwtop vial was charged with aniline (BRD-K25923209) (43.3 mg, 0.089 mmol) and CH2Cl2 (Volume: 886 μl, Density: 1.325 g/ml). Isopropyl chloroformate (115 μl, 0.115 mmol) and DIEA (46.4 μl, 0.266 mmol) were added dropwise and reaction stirred under ambient conditions for 1 h. […] The reaction mixture was loaded directly onto SiO2 and purified via ISCO (1-12% MeOH in CH2Cl2, 20 min); Collected fractions 40-44 to afford the product as a yellow oil in 33.8% (17.2 mg) yield. (M+H)^+ calculated=575.3228 (M+H)^+ average (3 ESI replicates)=575.3235±1.32. k. BRD-K04244835: A 2.5 mL microwave vial was charged with aniline (BRD-K25923209) (40 mg, 0.082 mmol) and EtOH (Volume: 819 μl, Density: 0.81 g/ml). Squaramide (CRE-III-001) (20.75 mg, 0.098 mmol), DIEA (42.8 μl, 0.246 mmol), and DMAP (2.000 mg, 0.016 mmol) were added in sequence and the vial was sealed. […] (M+H)^+ calculated=654.365 (M+H)^+ average (3 ESI replicates)=654.3661±1.64. […]

HIV-1 5′-LTR (Nuc-1) = assay: FAIRE assay in J-Lat 11.1; assay type: cell-based; settings: overnight compound treatment
Procedure: 24. Activation markers, apoptosis and viability of primary CD4+ T cells: Activation markers, namely CD25 and CD69 were analyzed as described previously^55. Briefly, CD4+ T cells were treated with DMSO, compound, or PMA/Ionomycin for 24 and 72 hours. Cells were collected, washed with PBS and stained for 30 min at 4° C. with α-CD25-APC (17-0259-42, eBioscience) and α-CD69-FITC (11-0699-42, eBioscience). Following two washes with PBS, cells were fixed with 1% HCHO at 4° C. and analyzed by flow cytometry with Becton Dickinson Fortessa instrument. To determine percent of apoptotic cells after treatment cells were stimulated for 24 and 72 hours and stained with anti-AnnexinV-PE (BD Biosciences, cat. 556454) in the presence of 2.5 mM CaCl2 for 20 min at 4° C. Cells were analyzed by Becton Dickinson Fortessa flow cytometer. Data represents the average of six experiments performed on cells from different healthy donors. Viability of ex-vivo infected primary CD4+ cells was determined by flow cytometry on the basis of forward versus side scatter analysis. 25. FAIRE: FAIRE experiment was performed as described, with minor modifications^55. Eighteen hours prior to analysis, J-Lat 11.1 cells were treated with BAFi's where indicated. Cells were fixed for 10 min by adding formaldehyde to a final concentration of 1% at room temperature. Twenty million cells were used per FAIRE experiment. […]

For CO[C@H]1CN(C)C(=O)c2cc(NC(=O)OC(C)C)ccc2OC[C@H](C)N(Cc2ccc(-c3ccccn3)cc2)C[C@@H]1C [BRD-K80443127], which “differential expression of c-MYC and p21” value ([1]; CD4+ T cells from 3 healthy donors, 3 μM, 16 hours) is on record?
The value was “consistent with BAF inhibition”.

And the C-MYC transcript levels ([1]; three patients, 10 μM)?
Its C-MYC transcript levels is “significant decrease”.

And the p21 transcript levels ([1]; three patients, 10 μM)?
Its p21 transcript levels is “significant decrease”.

And the “chromatin accessibility at the Nuc-1 position of the 5′ LTR” value (HIV-1 5′-LTR (Nuc-1))?
The value was “increased chromatin accessibility”.
